The text below walks through data of patent publication US5382582A, “Methotrexate analogs and methods of using same” (priority 1993, dated 1995).

As usually defined, the IC50 is the point on the concentration scale where inhibition reaches its midpoint. The low end stands for greater potency, the high end for weaker potency.

Data set [1] has as its system human leukemia cell line K562. Briefly: Growth inhibition of myelogenous leukemia cells (cell counts, 120 h continuous exposure). The data set is classed as cell-based. The conditions noted are these: for IC50: Homo sapiens, K562 Cells, 120 hours continuous exposure. As to the method: (§1) Two suspensious human leukemia cell lines were employed in this study. The myelogenous leukemia cell line K562 was cultured in RPMI 1640 (JRH Biosciences) containing 10% filtered fetal bovine serum (FBS; Irvine Scientific), and the lymphoblastic leukemia cell line CCRF/CEM was cultured in RPMI 1640 containing 20% FBS, 100 U/ml penicillin (GIBCO Laboratories, Grand Island, NY), and 100 μg/ml streptomycin (GIBCO). Cells were maintained at 37° C. with 5% CO2 in air, and were cultured using standard sterile tissue culture technique.
(§2) Prior to toxicity studies, cells were maintained 48 hours in the absence of added inhibitor. Logarithmically growing cells were inoculated at 1×10^4 cells/ml in tissue culture grade petri dishes (35×10 mm), and, following a suitable recovery period, were treated with chemical agents. Inhibitor concentrations ranging from 10^-12 to 10^-4 M were added to the cultures except for a control culture, which contained no added drug. Cell counts were performed by hematometer counting during 120 hours of continuous exposure to the drugs. The IC50 value was obtained by interpolation from graphs of percent growth inhibition plotted against drug concentration.

Data set [2] concerns human leukemia cell line CCRF/CEM. The experiment in a line: Growth inhibition of lymphoblastic leukemia cells (cell counts, 120 h continuous exposure). The data set is classed as cell-based. On the procedure: as §1, §2
The nature of data set [3]: In vivo pharmacokinetics: 7-OH-MTX formed from drug in rabbit plasma. The arrangement: species or system New Zealand White rabbit. Particulars: i.v., as compared with MTX. As to the method: A male New Zealand White rabbit was cannulated through the middle ear artery. A single bolus 16.7 mg/kg dose of drug was administered into the ear vein, and 1.0 ml blood samples were withdrawn from the cannulated artery into heparinized tubes at 0, 5, 15, 30, 45, 60, 75 and 90 minutes following drug administration. Plasma was separated from the samples by centrifugation at 1000 rpm, and was kept frozen until analysis.
HPLC analysis was performed as in Example 5, with the exception that the mobile phase was 0.1 M monobasic sodium phosphate and 0.1 M Tris-HCl in 20% methanol at a final pH of 6.7. p-Aminoacetophenone (10 μg/ml in water) was used as an internal standard.
Pharmacokinetic parameters were determined by the method of residual, a standard pharmacokinetic technique for resolving a curve into its various exponential components.
Thus tmax was calculated according to the formula:
tmax =2.3 log (ka /kc)/[…]

For data set [4] the following is noted: Tomcuf, J. Organic Chem., 26, 3351 (1961); cited from earlier work.
For data set [5] the following is noted: high dose regimen; Barak et al. (1984); cited from earlier work.
The nature of data set [6]: Half-life in rabbit liver homogenate. As to the method:
(§3) For these experiments, freshly isolated liver from a New Zealand white rabbit was homogenized in 400 ml of cold buffer of pH 7.6 consisting of 10 mM Tris-HCl, 25 mM sucrose and 10 mMMgCl2. The homogenate was centrifuged at 1000× g for 20 minutes at 4° C. and the resulting pellet was resuspended in about 14 ml of the same buffer. […] Two ml samples of the homogenate were removed at 10 minute intervals. Samples were boiled 5 minutes to denature proteins, and then centrifuged to pellet cell debris. […] For HPLC analysis, a Perkin-Elmer 410 LC solvent delivery system and a 5-μm IBM ODS column (4.1×250 mm) with a C18 Guard column were employed. […] Detector output was recorded and integrated by a Perkin-Elmer LCI 100 integrator.

Data set [7] can be described thus: Formation of 7-OH-MTX (7-hydroxylation) in rabbit liver homogenate. The conditions noted are these: as compared with MTX. As to the method:
as §3, with “employed. The mobile phase consisted of 0.1 M monobasic sodium phosphate and 0.1 M Tris-HCl in 27% methanol at a final pH of 7.6.” for “employed.”

The conditions of data set [8]: Rosowsky and Chen, J. Med. Chem., 18, 1308-11 (1974); cited from earlier work.
For data set [9] the following is noted: man and monkeys; Borsi et al. (1990), Jacobs et al. (1976); cited from earlier work.

`[2H]c1nc2nc(N)nc(N)c2nc1C([2H])([2H])N(C)c1ccc(C(=O)N[C@@H](CCC(=O)O)C(=O)O)cc1` (racemic) [7,9,9-d3 -MTX, N-[p-[N-(2,4-diamino-7-deutero-6-pteridinyldideuteromethyl)-N-methylamino]benzoyl]glutamic acid] registered an IC50 in data set [1] of 40 nM. Besides, the “IC50 compared with IC50 of MTX” value in data set [1] (K562 and CCRF/CEM cells, D,L-racemate) is given as “greater than the IC50 values obtained for MTX”. Besides, it took 48 nM to reach half-maximal inhibition in data set [2] (IC50). In data set [3], the “Peak level of 7-OH-MTX less than that obtained from MTX by” value is reported as “about 70%” and the “Time to achieve 7-OH-MTX peak level as compared to that of MTX” value is recorded as “more than twice as long”.

As to `CN(Cc1cnc2nc(N)nc(N)c2n1)c1c(F)cc(C(=O)N[C@@H](CCC(=O)O)C(=O)O)cc1F` [3', 5'-difluoro MTX], the “Biological activity as compared with MTX” value in data set [4] is given as “little or no increase in biological activity as compared with MTX”.

`CN(Cc1nc2c(N)nc(N)nc2nc1O)c1ccc(C(=O)N[C@@H](CCC(=O)O)C(=O)O)cc1` [7-OH-MTX, 7-hydroxymethotrexate]: the “Toxicity” value in [5] is reported as “the source of this toxicity”.

For `[2H]c1nc2nc(N)nc(N)c2nc1CN(C)c1ccc(C(=O)N[C@@H](CCC(=O)O)C(=O)O)cc1` [7-d-MTX, N-{p-[N-(2,4-diamino-7-deutero-6-pterridinylmethyl)-N-methylamino]benzoyl}-L -glutamic acid], the 50% inhibitory concentration (IC50) in data set [1] came to 6 nM; in data set [2], 9.5 nM. Also, the “IC50 lower than IC50 of MTX by” value in [1] (K562 and CCRF/CEM cells, as compared with MTX) is 15-25%. The “Half-life greater than half-life for MTX by” value in data set [6] (rabbit liver homogenate, as compared with MTX) was “about 60%”. In [7], the “Less 7-OH-MTX formed per unit time than from MTX” value is recorded as “about 70%”.

For the compound `Cc1nc2nc(N)nc(N)c2nc1CN(C)c1ccc(C(=O)N[C@@H](CCC(=O)O)C(=O)O)cc1` [7-methyl substituted MTX], the “Antifolate antagonism” value in data set [8] is on record as “impaired antifolate antagonism”.

On to `CN(Cc1cnc2nc(N)nc(N)c2n1)c1ccc(C(=O)N[C@@H](CCC(=O)O)C(=O)O)cc1` [MTX, N-[4-[[(2,4-diamino-6pteridinyl)methyl]methylamino]benzoyl]-L-glutamicacid, reference compound], for which the IC50 in [1] came to 8 nM; in data set [2] it was 11.3 nM. This compound came in with a Half-Life in data set [6] (rabbit, liver homogenate, pH 7.6) of 28.2 min. Moreover, the “Conversion in vivo to 7-OH-MTX” value in data set [9] is given as “converted in vivo to 7-hydroxymethotrexate (7-OH-MTX)”. Also, the “Toxicity” value in data set [5] is “associated with renal and hepatic toxicity”.
